Measurements published in US20230143612A1 (Arbutus Biopharma Corporation, priority 2020, published 2023).

The compounds below were run against PD-L1 His protein / PD-1 Fc protein (Homo sapiens, UniProt Q9NZQ7) (assay: HTRF Assay (PD-1/PD-L1 interaction)). Settings: PD-L1 His 6 nM, PD-1 Fc 6 nM.
Type: binding
Procedure, shortened: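 HTRF: PD-L1 His (6 nM final), compound (3-fold dilutions, 20 μM to 0.001 μM final) and PD-1 Fc (6 nM final) preincubated 15 min at room temperature. Anti-human IgG-XL665 and anti-6HIS Tb cryptate (mixed at 6.7 nM and 0.35 nM) then added for 1 h at room temperature before reading.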

Chain of PD-L1 His protein / PD-1 Fc protein (Q9NZQ7 19-238 limits assumed): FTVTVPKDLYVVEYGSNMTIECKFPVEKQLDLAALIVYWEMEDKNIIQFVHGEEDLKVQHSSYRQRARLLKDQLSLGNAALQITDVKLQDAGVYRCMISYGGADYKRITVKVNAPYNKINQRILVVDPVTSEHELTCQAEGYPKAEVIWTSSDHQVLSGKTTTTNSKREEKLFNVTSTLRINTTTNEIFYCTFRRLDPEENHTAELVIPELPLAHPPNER

Going from `COc1cc(-c2cccc(-c3cccc(-c4ccn5c(=O)c(CNC[C@@H]6CCC(=O)N6)cnc5c4)c3Cl)c2Cl)c(F)cc1CNC[C@@H]1CCC(=O)N1` [Example 106, 8-(2,2′-Dichloro-2″-fluoro-5″-methoxy-4″-(((((S)-5-oxopyrrolidin-2-yl)methyl)amino)methyl)-[1,1′:3′,1″-terphenyl]-3-yl)-3-(((((S)-5-oxopyrrolidin-2-yl)methyl)amino)methyl)-4H-pyrido[1,2-a]pyrimidin-4-one] to `CSc1nc(-c2cccc(-c3cccc(-c4ccn5c(=O)c(CNC[C@@H]6CCC(=O)N6)cnc5c4)c3Cl)c2Cl)ccc1CNC[C@@H]1CCC(=O)N1` [Example 108, 8-(2,2′-Dichloro-3′-(6-(methylthio)-5-(((((S)-5-oxopyrrolidin-2-yl)methyl)amino)methyl)pyridin-2-yl)-[1,1′-biphenyl]-3-yl)-3-(((((S)-5-oxopyrrolidin-2-yl)methyl)amino)methyl)-4H-pyrido[1,2-a]pyrimidin-4-one], the IC50 falls from 4900 pM to 1000 pM (4.9-fold).

Compared with `COc1nc(-c2cccc(-c3cccc(-c4ccn5c(=O)c(CNC[C@@H]6CCC(=O)N6)ccc5c4)c3Cl)c2Cl)cnc1CNC[C@@H]1CCC(=O)N1` [Example 107, 8-(2,2′-Dichloro-3′-(6-methoxy-5-(((((S)-5-oxopyrrolidin-2-yl)methyl)amino)methyl)pyrazin-2-yl)-[1,1′-biphenyl]-3-yl)-3-(((((S)-5-oxopyrrolidin-2-yl)methyl)amino)methyl)-4H-quinolizin-4-one], `O=C1CC[C@@H](CNCc2ccc(-c3cccc(-c4cccc(-c5ccn6c(=O)c(CNC[C@@H]7CCC(=O)N7)cnc6c5)c4Cl)c3Cl)nc2OC2CC2)N1` [Example 109, 8-(2,2′-Dichloro-3′-(6-cyclopropoxy-5-(((((S)-5-oxopyrrolidin-2-yl)methyl)amino)methyl)pyridin-2-yl)-[1,1′-biphenyl]-3-yl)-3-(((((S)-5-oxopyrrolidin-2-yl)methyl)amino)methyl)-4H-pyrido[1,2-a]pyrimidin-4-one] is 3.5-fold higher in IC50: 400 pM for the first, 1400 pM for the second. The first is the more potent here.

Going from `O=C1CC[C@@H](CNCc2ccc(-c3cccc(-c4cccc(-c5ccn6c(=O)c(CNC[C@@H]7CCC(=O)N7)cnc6c5)c4Cl)c3Cl)cc2OC(F)F)N1` [Example 110, 8-(2,2′-Dichloro-3″-(difluoromethoxy)-4″-(((((S)-5-oxopyrrolidin-2-yl)methyl)amino)methyl)-[1,1′:3′,1″-terphenyl]-3-yl)-3-(((((S)-5-oxopyrrolidin-2-yl)methyl)amino)methyl)-4H-pyrido[1,2-a]pyrimidin-4-one] to `COc1nc(-c2cccc(-c3cccc(-c4ccn5c(=O)c(CNC[C@@H]6CCC(=O)N6)cnc5c4)c3Cl)c2Cl)ccc1CNCC(=O)O` [Example 125, (S)-((6-(2,2′-Dichloro-3′-(4-oxo-3-((((5-oxopyrrolidin-2-yl)methyl)amino)methyl)-4H-pyrido[1,2-a]pyrimidin-8-yl)-[1,1′-biphenyl]-3-yl)-2-methoxypyridin-3-yl)methyl)glycine], the IC50 falls from 2400 pM to 700 pM (3.4-fold).

Going from `COc1nc(-c2cccc(-c3cccc(-c4ccn5c(=O)c(CN6CC(C(C)(C)O)C6)cnc5c4)c3Cl)c2Cl)ccc1CNC[C@@H]1CCC(=O)N1` [Example 111, (S)-8-(2,2′-Dichloro-3′-(6-methoxy-5-((((5-oxopyrrolidin-2-yl)methyl)amino)methyl)pyridin-2-yl)-[1,1′-biphenyl]-3-yl)-3-((3-(2-hydroxypropan-2-yl)azetidin-1-yl)methyl)-4H-pyrido[1,2-a]pyrimidin-4-one] to `COc1nc(-c2cccc(-c3cccc(-c4ccn5c(=O)c(CNC[C@@H]6CCC(=O)N6)cnc5c4)c3Cl)c2Cl)ccc1CN1CC(C(C)(C)O)C1` [Example 112, (S)-8-(2,2′-Dichloro-3′-(5-((3-(2-hydroxypropan-2-yl)azetidin-1-yl)methyl)-6-methoxypyridin-2-yl)-[1,1′-biphenyl]-3-yl)-3-((((5-oxopyrrolidin-2-yl)methyl)amino)methyl)-4H-pyrido[1,2-a]pyrimidin-4-one], the IC50 falls from 6500 pM to 2900 pM (2.2-fold).

Going from `COC(=O)[C@H](CO)NCc1ccc(-c2cccc(-c3cccc(-c4ccn5c(=O)c(CNC[C@@H]6CCC(=O)N6)cnc5c4)c3Cl)c2Cl)nc1OC` [Example 113, Methyl ((6-(2,2′-dichloro-3′-(4-oxo-3-(((((S)-5-oxopyrrolidin-2-yl)methyl)amino)methyl)-4H-pyrido[1,2-a]pyrimidin-8-yl)-[1,1′-biphenyl]-3-yl)-2-methoxypyridin-3-yl)methyl)-L-serinate] to `COc1nc(-c2cccc(-c3cccc(-c4ccn5c(=O)c(CNC[C@@H]6CCC(=O)N6)cnc5c4)c3Cl)c2Cl)ccc1CN[C@@H](CO)C(=O)O` [Example 114, ((6-(2,2′-Dichloro-3′-(4-oxo-3-(((((S)-5-oxopyrrolidin-2-yl)methyl)amino)methyl)-4H-pyrido[1,2-a]pyrimidin-8-yl)-[1,1′-biphenyl]-3-yl)-2-methoxypyridin-3-yl)methyl)-L-serine], the IC50 falls from 54000 pM to 600 pM (90-fold). The second is the more potent here.

Going from `COc1nc(-c2cccc(-c3cccc(-c4ccn5c(=O)c(CNC[C@@H]6CCC(=O)N6)cnc5c4)c3Cl)c2Cl)ccc1CNC1(C(=O)O)CC1` [Example 115, (S)-1-(((6-(2,2′-Dichloro-3′-(4-oxo-3-((((5-oxopyrrolidin-2-yl)methyl)amino)methyl)-4H-pyrido[1,2-a]pyrimidin-8-yl)-[1,1′-biphenyl]-3-yl)-2-methoxypyridin-3-yl)methyl)amino)cyclopropane-1-carboxylic acid] to `COc1nc(-c2cccc(-c3cccc(-c4ccn5c(=O)c(CNC6(C(=O)O)CC6)cnc5c4)c3Cl)c2Cl)ccc1CNC[C@@H]1CCC(=O)N1` [Example 120, (S)-1-(((8-(2,2′-Dichloro-3′-(6-methoxy-5-((((5-oxopyrrolidin-2-yl)methyl)amino)methyl)-pyridin-2-yl)-[1,1′-biphenyl]-3-yl)-4-oxo-4H-pyrido[1,2-a]pyrimidin-3-yl)methyl)amino)-cyclopropane-1-carboxylic acid], the IC50 falls from 2500 pM to 400 pM (6.2-fold). The second is the more potent here.

`COc1nc(-c2cccc(-c3cccc(-c4ccn5c(=O)c(CN6CC[C@H](C(=O)O)C6)cnc5c4)c3Cl)c2Cl)cnc1CNC[C@@H]1CCC(=O)N1` [Example 116, (S)-1-((8-(2,2′-Dichloro-3′-(6-methoxy-5-(((((S)-5-oxopyrrolidin-2-yl)methyl)amino)methyl)pyrazin-2-yl)-[1,1′-biphenyl]-3-yl)-4-oxo-4H-pyrido[1,2-a]pyrimidin-3-yl)methyl)pyrrolidine-3-carboxylic acid] and `COc1nc(-c2cccc(-c3cccc(-c4ccn5c(=O)c(CN6CC(C(=O)O)C6)cnc5c4)c3Cl)c2Cl)cnc1CNC[C@@H]1CCC(=O)N1` [Example 117, (S)-1-((8-(2,2′-Dichloro-3′-(6-methoxy-5-((((5-oxopyrrolidin-2-yl)methyl)amino)methyl)pyrazin-2-yl)-[1,1′-biphenyl]-3-yl)-4-oxo-4H-pyrido[1,2-a]pyrimidin-3-yl)methyl)azetidine-3-carboxylic acid] are within 1.5-fold of each other in IC50: 300 pM for the first, 400 pM for the second.

First: COc1nc(-c2cccc(-c3cccc(-c4ccn5c(=O)c(CNC[C@@H]6CCC(=O)N6)cnc5c4)c3Cl)c2Cl)ccc1CN1CC[C@H](C(=O)O)C1 [Example 118, (S)-1-((6-(2,2′-Dichloro-3′-(4-oxo-3-(((((S)-5-oxopyrrolidin-2-yl)methyl)amino)methyl)-4H-pyrido[1,2-a]pyrimidin-8-yl)-[1,1′-biphenyl]-3-yl)-2-methoxypyridin-3-yl)methyl)pyrrolidine-3-carboxylic acid]
Second: COc1nc(-c2cccc(-c3cccc(-c4ccn5c(=O)c(CNC[C@@H]6CCC(=O)N6)cnc5c4)c3Cl)c2Cl)ccc1CN1CC(C(=O)O)C1 [Example 119, (S)-1-((6-(2,2′-Dichloro-3′-(4-oxo-3-((((5-oxopyrrolidin-2-yl)methyl)amino)methyl)-4H-pyrido[1,2-a]pyrimidin-8-yl)-[1,1′-biphenyl]-3-yl)-2-methoxypyridin-3-yl)methyl)azetidine-3-carboxylic acid]
The IC50 of the first is 1.5-fold lower: 200 pM for the first, 300 pM for the second. The first is the more potent here.

`COC(=O)C12CCC(CC1)N(Cc1ccc(-c3cccc(-c4cccc(-c5ccn6c(=O)c(CNC[C@@H]7CCC(=O)N7)cnc6c5)c4Cl)c3Cl)nc1OC)C2` [Example 121, Methyl (S)-2-((6-(2,2′-dichloro-3′-(4-oxo-3-((((5-oxopyrrolidin-2-yl)methyl)amino)methyl)-4H-pyrido[1,2-a]pyrimidin-8-yl)-[1,1′-biphenyl]-3-yl)-2-methoxypyridin-3-yl)methyl)-2-azabicyclo[2.2.2]octane-4-carboxylate] and `COc1nc(-c2cccc(-c3cccc(-c4ccn5c(=O)c(CNC[C@@H]6CCC(=O)N6)cnc5c4)c3Cl)c2Cl)ccc1CN1CC2(C(=O)O)CCC1CC2` [Example 122, (S)-2-((6-(2,2′-Dichloro-3′-(4-oxo-3-((((5-oxopyrrolidin-2-yl)methyl)amino)methyl)-4H-pyrido[1,2-a]pyrimidin-8-yl)-[1,1′-biphenyl]-3-yl)-2-methoxypyridin-3-yl)methyl)-2-azabicyclo[2.2.2]octane-4-carboxylic acid] are within 1.5-fold of each other in IC50: 1000 pM for the first, 800 pM for the second.

First: COc1nc(-c2cccc(-c3cccc(-c4cnc5c(Cl)c(CNC[C@@H]6CCC(=O)N6)sc5c4)c3Cl)c2Cl)ccc1CNC[C@@H]1CCC(=O)N1 [Example 123, (S)-5-((((3-Chloro-6-(2,2′-dichloro-3′-(6-methoxy-5-(((((S)-5-oxopyrrolidin-2-yl)methyl)amino)methyl)pyridin-2-yl)-[1,1′-biphenyl]-3-yl)thieno[3,2-b]pyridin-2-yl)methyl)amino)methyl)pyrrolidin-2-one]
Second: COC(=O)CNCc1ccc(-c2cccc(-c3cccc(-c4ccn5c(=O)c(CNC[C@@H]6CCC(=O)N6)cnc5c4)c3Cl)c2Cl)nc1OC [Example 124, Methyl (S)-((6-(2,2′-dichloro-3′-(4-oxo-3-((((5-oxopyrrolidin-2-yl)methyl)amino)methyl)-4H-pyrido[1,2-a]pyrimidin-8-yl)-[1,1′-biphenyl]-3-yl)-2-methoxypyridin-3-yl)methyl)glycinate]
The IC50 of the first is 19-fold lower: 200 pM for the first, 3800 pM for the second.
